Results taken from US9962403B2, “Formulation drug of sodium ion and calcium ion for treating cancer, tumor and nonmalignancy” (priority 2011, dated 2018).
Like-named read-outs stand apart in the source and are kept apart here.

Columns and labels:
[1] = for toxicity of high concentration solutions injected intramuscularly: paralysis of legs, cardiovascular and pulmonary failure, death
Description: First, potential roles of Na^+, K^+, Ca^2+ and Mg^2+ in treatment of tumor and cancer were tested. In vivo experiments in BALB/c mice were performed. High concentration solutions of Na^+, K^+, Ca^2+ and Mg^2+ were injected intramuscularly. […] Experiments were focused on high concentrations of Na^+ and Ca^2+ solutions.
At the beginning, in vivo toxicity of high concentrations of Na^+, Ca^2+, K^+, and Mg^2+ in BALB/c mice was examined.
BALB/c mice were housed and inbreeded in the contracted university animal facilities that was in accordance with the NIH regulation. Body weight of the BALB/c mice at the experiment was 30±g. The toxicity test was performed using intramuscular injection with 0.2ml of 35% NaCl, 35% CaCl2, 34% KCl or 35% MgCl2 in a mouse, respectively.
In total, 20 BALB/c mice (10 males and 10 females) were randomly divided into 5 groups, with 4 mice in each group.

[2] = tested on: tumors; assay: Earlier intratumoral injection of arsenic; assay type: in vivo, mice
Source text: An occasional opportunity sparked this invention. […] One day, the inventor went shopping in a Chinese supermarket and bought a dozen salted duck eggs. On the way back home, […] wondered why these salted duck eggs could be preserved at room temperature for years without rotting. The answer is that proteins and yolks in salted duck eggs are coagulated or clotted by high concentration of salt (sodium chloride), in particular by high concentration of sodium ions. The inventor linked this phenomenon to cell biology, cell physiology, membrane potential, ion science and cancer treatment, and presumed that high concentrations of sodium chloride might coagulate or clot proteins in cancer cells like what occurs in salted duck eggs.

[3] = tested on: MCA207 mouse sarcoma, MC38 mouse colorectal cancer and B16F1 mouse melanoma; settings: for average necrosis of all treated tumors: 48 hours; for occurrence of tumor necrosis: high concentrations, evaluated 24, 48 and 72 hours after treatment
Source text: Three animal tumor models of MCA207 mouse sarcoma, MC38 mouse colorectal cancer and B16F1 mouse melanoma were established in C57BL6 mice. The treatment of intratumoral injection started when tumors reached 8mm×8mm in size.
Thirty-six C57BL6 tumor mice were randomly divided into three groups according to tumor types (12 animals in each group). Then, animals in each group were further divided into 4 subgroups (3 tumor mice in each subgroup). Tumor animals in subgroup-1, as the control, were treated by intratumoral injection with 0.1ml of normal saline. Tumor animals in subgroup-2 were treated by intratumoral injection with 0.1ml of various concentrations of sodium chloride solution.
Twenty-four, 48 and 72 hours after treatment, experimental results were evaluated by measuring the dimension of necrotic area of the treated tumors using a ruler.

[4] = tested on: liver tumor; settings: 36.5% hypertonic saline; cited from earlier work
[5] = tested on: multiple glomus tumors; settings: 23.4% solution; 4 sessions of intralumenal injection in 6 months; one patient; cited from earlier work
[6] = tested on: MCF7 human breast cancer cells; assay: Fluorescent labeled Na+/Ca2+ probe technique, influx and death of cancer cells; assay type: cell-based
Source text: Fluorescent labeled ion probe technique was used in study of the influx of Na^+ and Ca^2+ from the extracellular fluid into intracellular fluid of cancer cells.

[7] = tested on: 18 types of human cancer cell lines; assay: Ex vivo killing test in tissue culture (Trypan blue exclusion or flow cytometry); assay type: cell-based
Description: Tumor cells were cultured in DMEM or RPMI1640 medium supplemented with 10% fetal bovine serum (FCS). The medium in the control group was free of the “medicinal ion bomb” solution. […] Mortality of cancer cells was evaluated by Trypan blue exclusion test or flow cytometry.
The role of the “medicinal ion bomb” in killing cancer cells was tested in tissue culture. Cancer cells were seeded in Petri dish using DMEM or RPMI1640 medium supplemented with 10% FCS. Each type of cancer cell line was prepared at 2×10^6 cells/ml in a 5ml plastic tube. […] Three to five minutes later, 0.5% Trypan Blue was added and mixed with the cell suspension for 2 minutes. The number of dead cancer cells was counted under an inverted microscope. Selected samples of treated cancer cell suspension for flow cytometer were prepared in phosphate-buffered saline (PBS) and mortality of cells was assayed using flow cytometer (Beckman Coulter Inc., CA).

[8] = 0.2ml of 35% NaCl, 35% CaCl2, 34% KCl or 35% MgCl2, mouse 30 g

For [Cl-].[K+] [KCl], the “outcome of animals after intramuscular injection” value (shortened to “outcome of animals”) [1, 8] was “died from cardiopulmonary failure 3 hours after treatment” and the “toxicity of high concentration solutions injected intramuscularly” value [1] was “toxic”.

In the case of [AsH3] [arsenic], the treatment outcome [2] is reported as “did not work well”.

For [Cl-].[Cl-].[Mg+2] [MgCl2], the “outcome of animals” value ([1]; mouse, in vivo) was “not well absorbed” and the “toxicity of high concentration solutions injected intramuscularly” value [1] was “toxic”.

For [Cl-].[Na+] [sodium chloride solution, sodium chloride], the “average necrosis of all treated tumors” value ([3]; 3.0 M solution) was 30%±10, the “minimal effective treatment concentration” value ([3]; Na+ alone or in combination, intratumoral injection, room temperature, listed as Na^+ solution) was 2.0 M and the “occurrence of tumor necrosis” value [3] was “necrosis occurred in all tumors”. For the same compound, the “average necrosis of all treated tumors” value ([3]; single intratumoral injection 0.1 mL of 5.0479 M solution) was 90%± 5, the “average necrosis of all treated tumors” value ([3]; single intratumoral injection 0.1 mL of 5.0479 M solution, listed as Na^+ solution) was 90%±5 and the “outcome of animals” value [1, 8] was “survived the experiment”. For the same compound, the treatment outcome [4] was “none of the tumors were successfully treated”, the treatment outcome [5] was “did not result in successful treatment” and the “time to kill MCF7 cells” value ([6]; 5.0479 M of Na+ solution alone) was 20 ± 4 s.

With [Ca+2].[Cl-].[Cl-] [calcium chloride solution, calcium chloride] the “maximal effective treatment concentration” value ([3]; Ca2+ alone or in combination, intratumoral injection, room temperature) was 6.0 M, the “local toxicity at the injection site” value ([3]; high concentration of calcium chloride solution) was “toxic that causes unhealed wound at the injection site” and the “occurrence of tumor necrosis” value [3] was “necrosis occurred in all tumors”. For the same compound, the “necrosis of treated tumors” value ([3]; single intratumoral injection 0.1 ml of 250 mM, 1.0 M, 1.5 M, 2.0 M and 3.0 M, 48 hours posttreatment) was “coagulating necrosis of all treated tumors”, the “outcome of animals” value ([1]; 0.2ml of 17.5% CaCl2) was “survived the experiment” and the “outcome of animals” value [1, 8] was “died in 3 hours after treatment”. The “effect of tissue culture medium containing 250 mM of Ca2+” value [7] was “induced sickness, apoptosis and death” and the “effect of Ca2+ solutions on cancer cells” value ([6]; 250 mM, 1.0 M, 1.5 M, 2.0 M and 3.0 M, Ca2+ probe fluorescence microscopy) was “immediate sickness or death of cancer cells”.
